In brackets after ≈: the same amount, converted by molar mass. Entries after “also recorded” stand apart in the source; their conditions may differ. Read-outs that look alike come from different tables or passages of the source. Each block holds one molecule with its values, some of them ahead of it.
What was measured:
Type in all cases: physicochemical
[1] = Desolvation of ethyl acetate solvate crystal forms upon drying and heating; details: drying and heating above about 30° C.
Procedure: For example, Examples 4A and 4B teach methods of producing crystalline (R)-amisulpride ethyl acetate solvate of Form B. The product of these examples upon drying above about 30° C., desolvates and converts to crystals of crystalline (R)-amisulpride free base of Form A and amorphous. Similarly, for example, Example 7 teaches a method producing crystalline (S)-amisulpride ethyl acetate solvate of Form B′. The product of these examples upon drying above about 30° C., desolvates and converts to crystals of crystalline (S)-amisulpride free base of Form A′ and amorphous. Although the fraction of the solvate that converts to Form A or Form A′ in the above examples is low, it is sufficient for obtaining seed crystals.
In various preferred embodiments, crystals of enantiomeric amisulpride ethyl acetate solvate are isolated by cooling the reaction mixture to below about 10° C., and preferably to about −10° C., until a slurry is formed. The slurry is slowly warmed and agitated for at least 1 hour at a temperature less than about 10° C., then filtered and washed with ethyl acetate at room temperature, and the resultant residue allowed to dry to isolate the desired crystalline enantiomeric amisulpride ethyl acetate solvate having a powder x-ray crystal pattern comprising peaks, in terms of 2-theta, at least at 6.4±0.2°, 8.3±0.2°, and 20.8±0.2°.

[2] = Solubility (mg/mL) in water, buffers, simulated fluids and organic solvents (Table 1)
[3] = DVS water sorption isotherm, 25° C. scanned over 0 to 95% relative humidity (hygroscopicity); details: DVS, 25° C., 0 to 95% relative humidity
Source text: In various embodiments, the hygroscopicity of crystal forms of racemic amisulpride, enantiomeric amisulpride, and enantiomeric amisulpride solvates are characterized by dynamic vapor sorption (DVS). DVS is a gravimetric technique that measures how much of a solvent is absorbed by a sample by varying the vapor concentration surrounding the sample (e.g., relative humidity) and measuring the change in mass. In the present application, DVS is used to generate water sorption isotherms, which represent the equilibrium amount of vapor sorbed as a function of steady state relative vapor pressure at a constant temperature.

SMILES: CCN1CCC[C@@H]1CNC(=O)c1cc(S(=O)(=O)CC)c(N)cc1OC.CCOC(C)=O [Form B, (R)-4-Amino-N-[(1-ethyl-2-pyrrolidinyl)methyl]-5-(ethylsulfonyl)-2-methoxybenzamide ethyl acetate solvate]
desolvation of ethyl acetate solvate form [1]: desolvate upon drying and heating about 30 °C to convert to Form A; also recorded: desolvate to Form A and amorphous

solubility ([2]; acetone/MtBE 1:4, organic solvent or mixture, read-out: Solubility (mg/mL): Acetone/MtBE 1:4): 0.4 mg/mL (≈ 1080 µM)
solubility ([2]; acetone/MtBE 1:9, organic solvent or mixture, read-out: Solubility (mg/mL): Acetone/MtBE 1:9): 0.2 mg/mL (≈ 541 µM)
solubility ([2]; ethyl acetate, organic solvent or mixture, read-out: Solubility (mg/mL): Ethyl Acetate): 0.5 mg/mL (≈ 1350 µM)
solubility ([2]; water, solution pH 10.2 (Form A), 10.3 (Form A′), read-out: Solubility (mg/mL): Water): < 1 mg/mL
SMILES: CCN1CCCC1CNC(=O)c1cc(S(=O)(=O)CC)c(N)cc1OC (racemic) [crystalline racemic amisulpride, 4-amino-N-[(1-ethylpyrrolidin-2-yl)methyl]-5-ethylsulfonyl-2-methoxy-benzamide, reference compound]

SMILES: CCN1CCC[C@H]1CNC(=O)c1cc(S(=O)(=O)CC)c(N)cc1OC.CCOC(C)=O [Form B′, S-4-Amino-N-[(1-ethyl-2-pyrrolidinyl)methyl]-5-(ethylsulfonyl)-2-methoxybenzamide ethyl acetate solvate]
desolvation of ethyl acetate solvate form [1]: desolvate upon drying and heating about 30 °C; also recorded: desolvate to Form A′ and amorphous

hygroscopicity [3]: highly hygroscopic
maximum mass change in water sorption isotherms (n=4, σ=18.25) ([3]; n=4): 52±9%
SMILES: CCN1CCC[C@H]1CNC(=O)c1cc(S(=O)(=O)CC)c(N)cc1OC.O=C(O)C(O)C(O)C(=O)O [(S)-amisulpride D-tartrate, S-(−)-4-Amino-N-[(1-ethyl-2-pyrrolidinyl)methyl]-5-(ethylsulfonyl)-2-methoxybenzamide D-tartrate, reference compound]
